We go through 16 molecules from patent publication US10183954B2, “Oxathiolane carboxylic acids and derivatives for the treatment and prophylaxis of virus infection” (Hoffmann-La Roche Inc., priority 2016, dated 2019).

The structures appear in SMILES notation. pEC50: −log10 of the molar value.

human TLR7, sequence (Q9NYK1 27-1049): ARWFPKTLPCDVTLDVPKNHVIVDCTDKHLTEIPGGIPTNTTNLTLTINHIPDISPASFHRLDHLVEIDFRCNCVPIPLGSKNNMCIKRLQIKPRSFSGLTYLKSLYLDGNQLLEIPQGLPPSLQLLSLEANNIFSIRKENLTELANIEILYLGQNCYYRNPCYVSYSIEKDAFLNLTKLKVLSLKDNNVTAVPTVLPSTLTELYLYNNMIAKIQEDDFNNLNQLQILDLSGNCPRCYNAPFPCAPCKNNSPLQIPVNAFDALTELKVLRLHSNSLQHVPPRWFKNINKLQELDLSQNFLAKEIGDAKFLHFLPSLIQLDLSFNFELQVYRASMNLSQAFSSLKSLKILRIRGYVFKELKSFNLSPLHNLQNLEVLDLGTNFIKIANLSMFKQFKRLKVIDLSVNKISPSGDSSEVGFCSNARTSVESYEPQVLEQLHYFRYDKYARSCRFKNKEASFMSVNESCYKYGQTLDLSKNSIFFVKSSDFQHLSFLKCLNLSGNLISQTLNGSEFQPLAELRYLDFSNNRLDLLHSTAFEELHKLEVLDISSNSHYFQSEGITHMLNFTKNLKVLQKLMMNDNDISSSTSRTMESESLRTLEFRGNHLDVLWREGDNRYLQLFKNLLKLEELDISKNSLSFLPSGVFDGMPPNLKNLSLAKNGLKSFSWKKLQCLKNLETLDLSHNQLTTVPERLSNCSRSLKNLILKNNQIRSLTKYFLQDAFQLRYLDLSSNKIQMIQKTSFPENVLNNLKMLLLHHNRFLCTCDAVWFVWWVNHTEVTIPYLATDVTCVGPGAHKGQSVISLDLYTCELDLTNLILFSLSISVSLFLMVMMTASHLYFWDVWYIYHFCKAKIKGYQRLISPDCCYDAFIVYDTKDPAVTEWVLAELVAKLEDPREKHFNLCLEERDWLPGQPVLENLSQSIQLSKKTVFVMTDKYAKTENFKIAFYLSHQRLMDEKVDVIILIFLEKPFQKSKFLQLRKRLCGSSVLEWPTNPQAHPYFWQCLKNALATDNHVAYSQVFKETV

In one data set the target is human TLR7 (Homo sapiens (Human), UniProt Q9NYK1). Kind of data set: HEK293-Blue-hTLR-7 cells assay (SEAP reporter). The data set is classed as cell-based. As to conditions: 20 hours incubation. The text has this:
HEK293-Blue-hTLR-7 Cells Assay: A stable HEK293-Blue-hTLR-7 cell line was purchased from InvivoGen (Cat.#: hkb-htlr7, San Diego, Calif., USA). These cells were designed for studying the stimulation of human TLR7 by monitoring the activation of NF-κB. A SEAP (secreted embryonic alkaline phosphatase) reporter gene was placed under the control of the […] minimal promoter fused to five NF-κB and AP-1-binding sites. The SEAP was induced by activating NF-κB and AP-1 via stimulating HEK-Blue hTLR7 cells with TLR7 ligands. Therefore the reporter expression was regulated by the NF-κB promoter upon stimulation of human TLR7. The cell culture supernatant SEAP reporter activity was determined using QUANTI-Blue™ kit (Cat.#: rep-qb 1, Invivogen, San Diego, Ca, USA) at a wavelength of 640 nm, a detection medium that turns purple to blue in the presence of alkaline phosphatase. HEK293-Blue-hTLR7 cells were incubated at a density of 250,000˜450,000 cells/mL in a volume of 180 μL in a 96-well plate in Dulbecco's Modified Eagle's medium (DMEM) containing 4.5 g/l glucose, 50 U/ml penicillin, […], […], 2 mM L-glutamine, 10% (v/v) heat-inactivated fetal bovine serum for 24 h. Then the HEK293-Blue-hTLR-7 cells were incubated with addition of 20 μL test compound in a serial dilution in the presence of final DMSO at 1% and perform incubation under 37° C. in a CO2 incubator for 20 hours. Then 20 μL of the supernatant from each well was incubated with 180 μL Quanti-blue substrate solution at 37° C. for 1-3 hours and the absorbance was read at 620˜655 nm using a spectrophotometer.
`Nc1nc2c(sc(=O)n2[C@@H]2O[C@H](CO)S[C@H]2CC(=O)O)c(=O)[nH]1` (relative stereo) [Example 2-P1, 2-[(trans-2,4-trans-4,5)-5-(5-amino-2,7-dioxo-6H-thiazolo[4,5-d]pyrimidin-3-yl)-2-(hydroxymethyl)-1,3-oxathiolan-4-yl]acetic acid] had a pEC50 of 3.84.
`COC(=O)CC1SC([C@H](C)O)OC1n1c(=O)sc2c(=O)[nH]c(N)nc21` (single isomer, unassigned) [Example 9-P3] showed a pEC50 of 4.66.
Still for that read-out and setting: the figure for `C[C@H](O)C1OC(n2c(=O)sc3c(=O)[nH]c(N)nc32)C(CC(=O)O)S1` (single isomer, unassigned) [Example 10-P3] is 4.64; for `CCCC[C@H](O)C1OC(n2c(=O)sc3c(=O)[nH]c(N)nc32)C(CC(=O)O)S1` (single isomer, unassigned) [Example 11-P3] it is 3.49; for `C=CC[C@H](O)C1OC(n2c(=O)sc3c(=O)[nH]c(N)nc32)C(CC(=O)O)S1` (single isomer, unassigned) [Example 12-P3] it is 4.38.
Molecule `COC(=O)CC1SC([C@@H](O)C2CC2)OC1n1c(=O)sc2c(=O)[nH]c(N)nc21` (single isomer, unassigned) [Example 13-P3] showed a negative logarithm of the EC50 (pEC50) of 4.82.
Still for that read-out and setting: the figure for `Nc1nc2c(sc(=O)n2C2OC([C@@H](O)C3CC3)SC2CC(=O)O)c(=O)[nH]1` (single isomer, unassigned) [Example 14-P3] is 5.00.
The same measure, in the same setting: the figure for `COC(=O)CC1SC(CO)OC1n1c(=O)sc2c(=O)[nH]c(N)nc21` (stereo not drawn) [Example 1-P1, methyl 2-[(trans-2,4-trans-4,5)-5-(5-amino-2,7-dioxo-6H-thiazolo[4,5-d]pyrimidin-3-yl)-2-hydroxymethyl)-1,3-oxathiolan-4-yl]acetate] is 3.50; for `CN(C)C(=O)CC1SC(CO)OC1n1c(=O)sc2c(=O)[nH]c(N)nc21` (stereo not drawn) [Example 3-P1, 2-[(trans-2,4-trans-4,5)-5-(5-amino-2,7-dioxo-6H-thiazolo[4,5-d]pyrimidin-3-yl)-2-(hydroxymethyl)-1,3-oxathiolan-4-yl]-N,N-dimethyl-acetamide] it is 3.33; for `CC[C@H](O)[C@H]1O[C@@H](n2c(=O)sc3c(=O)[nH]c(N)nc32)[C@H](CC(=O)OC)S1` [Example 4-P1, methyl 2-[(2S,4S,5R)-5-(5-amino-2,7-dioxo-6H-thiazolo[4,5-d]pyrimidin-3-yl)-2-[(1S)-1-hydroxypropyl]-1,3-oxathiolan-4-yl]acetate] it is 4.89.
On the same count and under the same terms, the figure for `CC[C@H](O)[C@H]1O[C@@H](n2c(=O)sc3c(=O)[nH]c(N)nc32)[C@H](CC(=O)O)S1` [Example 5-P1, 2-[(2S,4S,5R)-5-(5-amino-2,7-dioxo-6H-thiazolo[4,5-d]pyrimidin-3-yl)-2-[(1S)-1-hydroxypropyl]-1,3-oxathiolan-4-yl]acetic acid] is 4.62; for `CC[C@H](O)[C@H]1O[C@@H](n2c(=O)sc3c(=O)[nH]c(N)nc32)[C@H](CC(=O)NC)S1` [Example 6-P1, 2-[(2S,4S,5R)-5-(5-amino-2,7-dioxo-6H-thiazolo[4,5-d]pyrimidin-3-yl)-2-[(1S)-1-hydroxypropyl]-1,3-oxathiolan-4-yl]-N-methyl-acetamide] it is 4.64.
For `CC[C@H](O)[C@H]1O[C@@H](n2c(=O)sc3c(=O)[nH]c(N)nc32)[C@H](CC(=O)N(C)C)S1` [Example 7-P1, 2-[(2S,4S,5R)-5-(5-amino-2,7-dioxo-6H-thiazolo[4,5-d]pyrimidin-3-yl)-2-[(1S)-1-hydroxypropyl]-1,3-oxathiolan-4-yl]-N,N-dimethyl-acetamide], the pEC50 was 4.55.
Molecule `CC[C@H](O)[C@H]1O[C@@H](n2c(=O)sc3c(=O)[nH]c(N)nc32)[C@H](CC(=O)N2CCOCC2)S1` [Example 8-P1, 5-amino-3-[(2S,4S,5R)-2-[(1S)-1-hydroxypropyl]-4-(2-morpholino-2-oxo-ethyl)-1,3-oxathiolan-5-yl]-6H-thiazolo[4,5-d]pyrimidine-2,7-dione] gave a pEC50 of 5.60.

The next data set has as its system human hepatocytes. Kind of data set: Metabolic conversion of prodrugs in human hepatocytes.
Conditions: not given
The format is in vitro ADME. From the text:
Metabolism of Prodrugs: Compounds of Formula (II) A study was undertaken to evaluate the metabolic conversion of prodrugs, compounds of formula (II) or (IIa), to compounds of formula (I) or (Ia) of the present invention. The prodrugs, compounds of formula (II) or (IIa), can be metabolized to the active compound of formula (I) or (Ia) and other compounds of the invention in the body if they are served as prodrugs. Hepatocytes are often used to assess the degree of metabolic conversion of prodrugs in the body of animal or human. A study was undertaken to evaluate the metabolic conversion of prodrug Example 15, to the corresponding active form, Example 5-P1, in the presence of human hepatocytes. The formation of active form, Example 5-P1, was monitored in the study. For comparison, the metabolic conversion of famciclovir to penciclovir was also assessed. Cryopreserved hepatocytes plating medium (Cat.#: PY-HMD-03) was purchased from RILD Research Institute for Liver Diseases (Shanghai) Co. Ltd. Cryopreserved human hepatocyte (Cat.#: X008005, Lot#:VRR) was purchased from BioreclamationIVT (Baltimore, Md.). The stock hepatocyte suspension was prepared from cryopreserved hepatocytes in plating medium at the concentration of 1.8×10^6 cells/mL. […] The compounds were quantified on an API5500 […] instrument in the ESI-Positive MRM mode.
Take `CC[C@H](OC(=O)c1ccccc1)[C@H]1O[C@@H](n2c(=O)sc3cnc(N)nc32)[C@H](CC(=O)OC)S1` [Example 15, [(1S)-1-[(2S,4S,5R)-5-(5-amino-2-oxo-thiazolo[4,5-d]pyrimidin-3-yl)-4-(2-methoxy-2-oxo-ethyl)-1,3-oxathiolan-2-yl]propyl]benzoate]: the “Metabolic conversion of prodrug to active metabolite” value is given as “metabolized to yield the corresponding active metabolites”.
The same measure, in the same setting: the entry for `CC(=O)OCC(CCn1cnc2cnc(N)nc21)COC(C)=O` [Famciclovir, famciclovir, reference compound] is “metabolized to yield the corresponding active metabolites”.

By pEC50 is commonly meant the negative decadic logarithm of the EC50, by convention in mol/L.
